From ChEMBL document CHEMBL5236588 (J Med Chem, 2022) come the findings set out here.

The structures appear in SMILES notation. Residues, ends and D or L forms follow the SMILES beside them. Where only a bound is given, the exact number is not on record here.

The species named for data set [1] is Homo sapiens. Put plainly: Anticoagulant activity in human plasma assessed as prolongation of activated partial thromboplastin time by measuring concentration required to double aPTT. It is filed as functional.
Data set [2] can be described thus: Inhibition of human FXIIa.
The nature of data set [3]: Inhibition of human FXIa using Boc-Glu(OBzl)-AR-MCA as substrate.
A short description of data set [4]: Stability of compound in human serum at 50 uM incubated for 24 hrs by reversed phase HPLC analysis. It is filed as ADME, cell-free.
The target in data set [5] is Plasminogen (Homo sapiens, UniProt P00747). Briefly: Inhibition of human plasmin using Ac-RM(O2)YR-pNA as substrate.
Plasminogen, sequence (P00747 97-580 limits assumed): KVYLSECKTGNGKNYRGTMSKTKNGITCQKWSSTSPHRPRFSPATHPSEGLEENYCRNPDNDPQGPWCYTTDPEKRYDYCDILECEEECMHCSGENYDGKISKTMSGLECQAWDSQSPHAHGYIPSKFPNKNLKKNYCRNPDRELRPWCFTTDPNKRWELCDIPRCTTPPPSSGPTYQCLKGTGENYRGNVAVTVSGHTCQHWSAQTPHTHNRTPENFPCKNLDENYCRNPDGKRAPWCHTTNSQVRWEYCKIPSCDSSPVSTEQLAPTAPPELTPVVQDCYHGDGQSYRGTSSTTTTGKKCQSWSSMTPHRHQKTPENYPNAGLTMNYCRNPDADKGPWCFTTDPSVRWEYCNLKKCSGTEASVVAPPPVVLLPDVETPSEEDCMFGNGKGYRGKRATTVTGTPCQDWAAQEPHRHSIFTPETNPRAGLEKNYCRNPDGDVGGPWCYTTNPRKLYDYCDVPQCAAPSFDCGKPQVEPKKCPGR
Plasminogen, sequence (P00747 581-810 limits assumed): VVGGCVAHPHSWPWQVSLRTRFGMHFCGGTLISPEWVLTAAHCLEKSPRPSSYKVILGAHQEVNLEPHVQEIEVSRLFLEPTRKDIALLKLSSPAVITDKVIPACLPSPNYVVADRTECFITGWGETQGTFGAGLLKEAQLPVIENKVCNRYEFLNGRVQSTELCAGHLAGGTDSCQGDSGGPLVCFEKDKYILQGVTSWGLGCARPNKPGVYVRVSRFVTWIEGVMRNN
A short description of data set [6]: Inhibition of human cationic trypsin using Boc-VPR-MCA as susbtrate.
The target of data set [7] is T1, Suppressor of tumorigenicity 14 protein (Homo sapiens, UniProt Q9Y5Y6).
T1 sequence (Q9Y5Y6 whole entry): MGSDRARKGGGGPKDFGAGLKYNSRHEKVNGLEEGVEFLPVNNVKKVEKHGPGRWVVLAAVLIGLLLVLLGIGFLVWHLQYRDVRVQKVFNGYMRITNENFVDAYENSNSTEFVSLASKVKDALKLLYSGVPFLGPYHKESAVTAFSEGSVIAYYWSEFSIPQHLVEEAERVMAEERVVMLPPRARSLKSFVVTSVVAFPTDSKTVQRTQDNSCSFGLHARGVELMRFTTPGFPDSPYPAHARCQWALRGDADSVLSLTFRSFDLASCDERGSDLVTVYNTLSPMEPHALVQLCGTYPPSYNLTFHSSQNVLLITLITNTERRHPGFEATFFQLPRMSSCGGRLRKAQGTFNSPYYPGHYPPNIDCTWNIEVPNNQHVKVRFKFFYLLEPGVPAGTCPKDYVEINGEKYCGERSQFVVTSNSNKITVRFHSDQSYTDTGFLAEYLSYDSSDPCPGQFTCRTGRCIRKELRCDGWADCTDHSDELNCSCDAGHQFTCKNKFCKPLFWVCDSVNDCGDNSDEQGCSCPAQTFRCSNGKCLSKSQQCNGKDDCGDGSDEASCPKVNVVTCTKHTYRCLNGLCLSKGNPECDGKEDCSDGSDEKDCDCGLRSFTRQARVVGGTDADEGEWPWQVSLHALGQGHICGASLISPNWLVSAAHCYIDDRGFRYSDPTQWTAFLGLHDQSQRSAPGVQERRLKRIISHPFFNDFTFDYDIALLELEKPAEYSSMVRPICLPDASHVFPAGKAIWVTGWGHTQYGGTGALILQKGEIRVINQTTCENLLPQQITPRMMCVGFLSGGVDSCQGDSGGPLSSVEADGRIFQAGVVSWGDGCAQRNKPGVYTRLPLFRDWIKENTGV
Briefly: Inhibition of recombinant human matriptase using Boc-QAR-MCA as substrate.

The nature of data set [8]: Inhibition of FXIIa (unknown origin) using Ac-QRFR-pNA as substrate measured at 30 sec interval by microplate reader assay. Further details: species or system Homo sapiens.
A short description of data set [9]: Inhibition of human FXa using Z-Pyr-GR-MCA as substrate.
Data set [10] is described as follows: Stability of compound in human serum at 50 uM incubated for 8 hrs by reversed phase HPLC analysis. It is filed as ADME, cell-free. The conditions noted are these: read-out: Stability.
Data set [11] addresses Plasma kallikrein (Homo sapiens, UniProt P03952). Put plainly: Inhibition of human plasma kallikrein using Z-FR-MCA as substrate. It is filed as cell-free.
Data set [12] is described as follows: Inhibition of human beta-FIXa using Boc-QGR-MCA as substrate.
The species entered for data set [13] is Homo sapiens. Put plainly: Potency index, ratio of M8 Ki to test compound Ki for inhibition of FXIIa (unknown origin).

Plasma kallikrein, sequence (P03952 20-390 limits assumed): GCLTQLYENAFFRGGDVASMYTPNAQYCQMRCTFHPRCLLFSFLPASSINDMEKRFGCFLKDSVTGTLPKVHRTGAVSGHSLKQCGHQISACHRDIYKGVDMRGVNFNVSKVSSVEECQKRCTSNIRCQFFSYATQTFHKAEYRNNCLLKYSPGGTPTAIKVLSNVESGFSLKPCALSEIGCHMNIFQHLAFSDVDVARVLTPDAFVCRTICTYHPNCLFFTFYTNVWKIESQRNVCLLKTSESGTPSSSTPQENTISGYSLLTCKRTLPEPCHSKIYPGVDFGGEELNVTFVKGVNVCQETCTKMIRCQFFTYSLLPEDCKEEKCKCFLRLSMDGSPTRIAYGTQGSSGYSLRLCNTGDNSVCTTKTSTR
Plasma kallikrein, sequence (P03952 391-638 limits assumed): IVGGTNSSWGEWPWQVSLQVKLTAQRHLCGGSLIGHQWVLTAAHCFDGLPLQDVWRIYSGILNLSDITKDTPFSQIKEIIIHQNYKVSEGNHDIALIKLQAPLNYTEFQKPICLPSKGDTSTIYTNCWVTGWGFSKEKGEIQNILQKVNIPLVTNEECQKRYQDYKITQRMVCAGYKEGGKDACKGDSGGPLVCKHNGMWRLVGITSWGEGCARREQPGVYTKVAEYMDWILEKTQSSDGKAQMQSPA

`CC[C@H](C)[C@@H]1NC(=O)[C@H](CCCNC(=N)N)NC(=O)[C@H](Cc2ccccc2)NC(=O)[C@@H](NC(=O)[C@H](CCCNC(=N)N)NC(=O)CNC(=O)CN)CSSC[C@@H]2NC(=O)[C@H](C)NC(=O)CNC(=O)[C@@H]3CCCN3C(=O)[C@@H]3CSSC[C@@H](C(=O)NCC(=O)N[C@@H](CO)C(=O)O)NC(=O)[C@H](Cc4ccc(O)cc4)NC(=O)CNC(=O)[C@H](CC(N)=O)NC(=O)CNC(=O)[C@H](CCCNC(=N)N)NC(=O)[C@H](CSSC[C@H](NC(=O)[C@H](CCCCN)NC(=O)[C@H](CCCCN)NC(=O)CNC1=O)C(=O)N[C@@H](CCCNC(=N)N)C(=O)N[C@@H](CCCNC(=N)N)C(=O)N[C@@H](CC(=O)O)C(=O)N[C@@H](CO)C(=O)N[C@@H](CC(=O)O)C(=O)N3)NC(=O)[C@H]([C@@H](C)CC)NC2=O` (HELM PEPTIDE1{G.G.R.C.F.R.I.G.K.K.C.R.R.D.S.D.C.P.G.A.C.I.C.R.G.N.G.Y.C.G.S}$PEPTIDE1,PEPTIDE1,4:R3-21:R3|PEPTIDE1,PEPTIDE1,11:R3-23:R3|PEPTIDE1,PEPTIDE1,17:R3-29:R3$$$V2.0) [listing 1 of 2 here]: in data set [1], the Activity is 2.5 µM.
For orientation: Ki means the equilibrium dissociation constant of an inhibitor or competing ligand from its target. For the compound `CC(C)C[C@@H]1NC(=O)[C@H](CCC(N)=O)NC(=O)[C@H](Cc2c[nH]cn2)NC(=O)[C@@H]2CSCCC(=O)N3CN(CN(C3)C(=O)CCSC[C@H](NC(=O)[C@@H](CO)NC(=O)[C@H](N)CCCNC(=N)N)C(=O)N[C@@H](Cc3ccc(F)cc3)C(=O)N[C@@H](CCCNC(=N)N)C(=O)N[C@@H](CC(C)C)C(=O)N3CCC[C@H]3C(=O)N2)C(=O)CCSC[C@@H](C(=O)O)NC(=O)C[C@H](CCCNC(=N)N)NC1=O`, affinity in data set [2] was put at a Ki of 0.37 nM.
One may read the IC50 as the concentration at which inhibition is half-maximal. Take `CC[C@H](C)[C@@H]1NC(=O)[C@H](CCCNC(=N)N)NC(=O)[C@H](Cc2ccccc2)NC(=O)[C@@H](NC(=O)[C@H](CCCNC(=N)N)NC(=O)CNC(=O)CN)CSSC[C@@H]2NC(=O)[C@H](C)NC(=O)CNC(=O)[C@@H]3CCCN3C(=O)[C@@H]3CSSC[C@@H](C(=O)NCC(=O)N[C@@H](CO)C(=O)O)NC(=O)[C@H](Cc4ccc(O)cc4)NC(=O)CNC(=O)[C@H](CC(N)=O)NC(=O)CNC(=O)[C@H](CCCNC(=N)N)NC(=O)[C@H](CSSC[C@H](NC(=O)[C@H](CCCCN)NC(=O)[C@H](CCCCN)NC(=O)CNC1=O)C(=O)N[C@@H](CCCNC(=N)N)C(=O)N[C@@H](CCCNC(=N)N)C(=O)N[C@@H](CC(=O)O)C(=O)N[C@@H](CO)C(=O)N[C@@H](CC(=O)O)C(=O)N3)NC(=O)[C@H]([C@@H](C)CC)NC2=O` (HELM PEPTIDE1{G.G.R.C.F.R.I.G.K.K.C.R.R.D.S.D.C.P.G.A.C.I.C.R.G.N.G.Y.C.G.S}$PEPTIDE1,PEPTIDE1,4:R3-21:R3|PEPTIDE1,PEPTIDE1,11:R3-23:R3|PEPTIDE1,PEPTIDE1,17:R3-29:R3$$$V2.0) [listing 2 of 2 here]: the IC50 in data set [3], in [5], in [6], in data set [9], in data set [11] and in data set [12] was above 5000 nM throughout. In addition, in data set [4], the Stability result is given as “Stable”. The Ki was 1430 nM in data set [7] and 2 nM in data set [8]. Besides, in [10], the remaining at 8 h, 50 µM stood at 100%.
Turning to `CC[C@H](C)[C@@H]1NC(=O)[C@@H]2CSSC[C@@H]3NC(=O)[C@H](CCC(N)=O)NC(=O)CNC(=O)CNC(=O)[C@H](CO)NC(=O)[C@H](CO)NC(=O)CNC(=O)[C@@H]4CSSC[C@H](NC(=O)[C@H](CC(=O)O)NC(=O)[C@H](CO)NC(=O)[C@H](CC(=O)O)NC(=O)[C@H](CCCNC(=N)N)NC(=O)[C@H](CCCNC(=N)N)NC(=O)[C@H](CSSC[C@H](NC1=O)C(=O)N[C@@H](CCCNC(=N)N)C(=O)NCC(=O)N[C@@H](CC(N)=O)C(=O)NCC(=O)N[C@@H](Cc1ccc(O)cc1)C(=O)N4)NC(=O)[C@H](CCCCN)NC(=O)[C@H](CCCCN)NC(=O)[C@H](CC(C)C)NC(=O)[C@H]([C@@H](C)CC)NC(=O)[C@H](CCCNC(=N)N)NC(=O)[C@H](Cc1ccccc1)NC3=O)C(=O)N1CCC[C@H]1C(=O)NCC(=O)N[C@@H](C)C(=O)N2` (HELM PEPTIDE1{A.C.I.C.R.G.N.G.Y.C.G.S.S.G.G.Q.C.F.R.I.L.K.K.C.R.R.D.S.D.C.P.G}$PEPTIDE1,PEPTIDE1,2:R3-17:R3|PEPTIDE1,PEPTIDE1,4:R3-24:R3|PEPTIDE1,PEPTIDE1,10:R3-30:R3|PEPTIDE1,PEPTIDE1,1:R1-32:R2$$$V2.0), the Ki in [8] was 131 nM. Also, the Ratio Ki in data set [13] was 1.5.
In the case of `CC[C@H](C)[C@@H]1NC(=O)[C@@H]2CSSC[C@H](NC(=O)[C@H](CCCNC(=N)N)NC(=O)CNC(=O)CN)C(=O)N[C@@H](Cc3ccccc3)C(=O)N[C@@H](CCCNC(=N)N)C(=O)N[C@@H]([C@@H](C)CC)C(=O)N[C@@H](CC(C)C)C(=O)N[C@@H](CCCCN)C(=O)N[C@@H](CCCCN)C(=O)N[C@H]3CSSC[C@H](NC1=O)C(=O)N[C@@H](CCCNC(=N)N)C(=O)NCC(=O)N[C@@H](CC(N)=O)C(=O)NCC(=O)N[C@@H](Cc1ccc(O)cc1)C(=O)N[C@H](C(=O)NCC(=O)N[C@@H](CO)C(=O)O)CSSC[C@H](NC(=O)[C@H](CC(=O)O)NC(=O)[C@H](CO)NC(=O)[C@H](CC(=O)O)NC(=O)[C@H](CCCNC(=N)N)NC(=O)[C@H](CCCNC(=N)N)NC3=O)C(=O)N1CCC[C@H]1C(=O)NCC(=O)N[C@@H](C)C(=O)N2` (HELM PEPTIDE1{G.G.R.C.F.R.I.L.K.K.C.R.R.D.S.D.C.P.G.A.C.I.C.R.G.N.G.Y.C.G.S}$PEPTIDE1,PEPTIDE1,4:R3-21:R3|PEPTIDE1,PEPTIDE1,11:R3-23:R3|PEPTIDE1,PEPTIDE1,17:R3-29:R3$$$V2.0), the IC50 in [3], in data set [9], in data set [11] and in [12] was above 5000 nM each time. Moreover, the Ki in data set [5] was determined as 86 nM; in data set [6], 275 nM; in data set [7], 30 nM; in [8] it was 3 nM.
In the case of `CC[C@H](C)[C@@H]1NC(=O)[C@@H]2CSSC[C@@H]3NC(=O)[C@H](CCC(N)=O)NC(=O)CNC(=O)CNC(=O)[C@H](CC(=O)O)NC(=O)[C@H](CO)NC(=O)CNC(=O)[C@H](CO)NC(=O)CNC(=O)[C@@H]4CSSC[C@H](NC(=O)[C@H](CC(=O)O)NC(=O)[C@H](CO)NC(=O)[C@H](CC(=O)O)NC(=O)[C@H](CCCNC(=N)N)NC(=O)[C@H](CCCNC(=N)N)NC(=O)[C@H](CSSC[C@H](NC1=O)C(=O)N[C@@H](CCCNC(=N)N)C(=O)NCC(=O)N[C@@H](CC(N)=O)C(=O)NCC(=O)N[C@@H](Cc1ccc(O)cc1)C(=O)N4)NC(=O)[C@H](CCCCN)NC(=O)[C@H](CCCCN)NC(=O)[C@H](CC(C)C)NC(=O)[C@H]([C@@H](C)CC)NC(=O)[C@H](CCCNC(=N)N)NC(=O)[C@H](Cc1ccccc1)NC3=O)C(=O)N1CCC[C@H]1C(=O)NCC(=O)N[C@@H](C)C(=O)N2` (HELM PEPTIDE1{A.C.I.C.R.G.N.G.Y.C.G.S.G.S.D.G.G.Q.C.F.R.I.L.K.K.C.R.R.D.S.D.C.P.G}$PEPTIDE1,PEPTIDE1,2:R3-19:R3|PEPTIDE1,PEPTIDE1,4:R3-26:R3|PEPTIDE1,PEPTIDE1,10:R3-32:R3|PEPTIDE1,PEPTIDE1,1:R1-34:R2$$$V2.0), the Stability result in [4] is reported as “Stable”. The affinity in data set [8] corresponds to a Ki of 193 nM.
`CC[C@H](C)[C@@H]1NC(=O)[C@@H]2CSSC[C@H](NC(=O)[C@H](CCC(N)=O)NC(=O)CNC(=O)CN)C(=O)N[C@@H](Cc3ccccc3)C(=O)N[C@@H](CCCNC(=N)N)C(=O)N[C@@H]([C@@H](C)CC)C(=O)N[C@@H](CC(C)C)C(=O)N[C@@H](CCCCN)C(=O)N[C@@H](CCCCN)C(=O)N[C@H]3CSSC[C@H](NC1=O)C(=O)N[C@@H](CCCNC(=N)N)C(=O)NCC(=O)N[C@@H](CC(N)=O)C(=O)NCC(=O)N[C@@H](Cc1ccc(O)cc1)C(=O)N[C@H](C(=O)NCC(=O)N[C@@H](CO)C(=O)O)CSSC[C@H](NC(=O)[C@H](CC(=O)O)NC(=O)[C@H](CO)NC(=O)[C@H](CC(=O)O)NC(=O)[C@H](CCCNC(=N)N)NC(=O)[C@H](CCCNC(=N)N)NC3=O)C(=O)N1CCC[C@H]1C(=O)NCC(=O)N[C@@H](C)C(=O)N2` (HELM PEPTIDE1{G.G.Q.C.F.R.I.L.K.K.C.R.R.D.S.D.C.P.G.A.C.I.C.R.G.N.G.Y.C.G.S}$PEPTIDE1,PEPTIDE1,4:R3-21:R3|PEPTIDE1,PEPTIDE1,11:R3-23:R3|PEPTIDE1,PEPTIDE1,17:R3-29:R3$$$V2.0): the figures for the Ki in data set [5], in [6] and in data set [8] were 283 nM, 157 nM and 25 nM, respectively. For the same compound, in [9], the IC50 was above 5000 nM.
